This is an account of results in the OligoGym collection.

After the bases stand the sugars from the 5' end (letter, count) and the backbone: PS all phosphorothioate, else s phosphorothioate and o phosphodiester by linkage. Methylation of C is not given here. e = 2'-O-(2-methoxyethyl) (MOE); k = constrained ethyl (cEt); d = 2'-deoxy (DNA); m = 2'-O-methyl

The first data set has as its target HSD17B13. To be noted: ASO, HepaRG, 0.02 µM.
Sequence “ATCCTATATACATCCA (sugars k3 d9 k3 e1, PS)” yielded a target mRNA inhibition of 0%.
ATGGTAAACTGTATGC (sugars k3 d10 k3, PS) had a target mRNA inhibition of 19%.
CAACTATGTAATAGGC (sugars k3 d10 k3, PS) registered a target mRNA inhibition of 1%.

The data set is the same for the next values; noted with them: ASO, HepaRG, 0.078 µM.
For the sequence “ATCCTATATACATCCA (sugars k3 d9 k3 e1, PS)”, the target mRNA inhibition was 7%.
ATGGTAAACTGTATGC (sugars k3 d10 k3, PS) gave a target mRNA inhibition of 23%.
Same read-out and setting: for CAACTATGTAATAGGC (sugars k3 d10 k3, PS) the value was 17%.

The same data set, now with this note: ASO, HepaRG, 0.313 µM.
On to “ATCCTATATACATCCA (sugars k3 d9 k3 e1, PS)”, for which the target mRNA inhibition came out at 39%.
Turning to ATGGTAAACTGTATGC (sugars k3 d10 k3, PS), the target mRNA inhibition is 53%.
CAACTATGTAATAGGC (sugars k3 d10 k3, PS) gave a target mRNA inhibition of 42%.

Still in this data set, the particulars now being: ASO, HepaRG, 1 µM.
ATATGTGAAGAGCTGG (sugars k3 d10 k3, PS) gave a target mRNA inhibition of 51%.
Still for that read-out and setting: under ATATTATCAGGACTGA (sugars k3 d10 k3, PS) stands 47%; under ATATTCCAGGATTTGC (sugars k3 d10 k3, PS), 26%; under “ATATTCTGTGGCATGG (sugars kkdddddddddkekek, PS)”, 43%.
Still for that read-out and setting: under ATATTGAGGCACTGGA (sugars k3 d10 k3, PS) stands 53%; under ATATTGATATACGATG (sugars k3 d10 k3, PS), 0%.
In turn, ATCAACCTGCACACCA (sugars k3 d10 k3, PS) gave a target mRNA inhibition of 63%.
Same read-out and setting: for ATCAAGACATTCTAGC (sugars k3 d10 k3, PS) the value was 61%.
In the case of ATCAATGCCTTAGCCC (sugars k3 d10 k3, PS), the target mRNA inhibition stood at 38%.
In turn, ATCACAAGTAAGGTAA (sugars k3 d10 k3, PS) returned a target mRNA inhibition of 62%.
On the same count and under the same terms, for ATCAGTTTTCCTCATG (sugars k3 d10 k3, PS) the value was 48%.
Sequence ATCCAAAGATGAGAGT (sugars k3 d10 k3, PS) yielded a target mRNA inhibition of 5%.
The same measure, in the same setting: for ATCCCAACCAAACTTC (sugars k3 d10 k3, PS) the value was 15%; for “ATCCTATATACATCCA (sugars k3 d9 k3 e1, PS)”, 75%; for “ATCCTATATACATCCA (sugars kkdddddddddkekek, PS)”, 65%.
Still for that read-out and setting: under ATCTATCAGACTTCTT (sugars k3 d10 k3, PS) stands 47%.
As for “ATCTATCAGACTTCTT (sugars kkdddddddddkekek, PS)”, the target mRNA inhibition worked out at 37%.
Same read-out and setting: under ATCTATTATGCACTCT (sugars k3 d10 k3, PS) stands 24%; under “ATCTCTGGGACCAAGG (sugars k3 d9 k3 e1, PS)”, 53%; under ATGAAGTTAGTATAGT (sugars k3 d10 k3, PS), 55%.
Still for that read-out and setting: for ATGAGGTAAGGAATCC (sugars k3 d10 k3, PS) the value was 0%.
On the same count and under the same terms, for “ATGAGGTTTTGATACC (sugars k3 d1 m1 d8 k3, PS)” the value was 49%; for ATGAGGTTTTGATACC (sugars k3 d10 k3, PS), 47%.
On to “ATGAGGTTTTGATACC (sugars kkdddddddddkekek, PS)”, for which the target mRNA inhibition amounted to 51%.
For ATGCAAAAGCATTCTA (sugars k3 d10 k3, PS), the target mRNA inhibition is 50%.
Same read-out and setting: under ATGCTAAAAGCTCACC (sugars k3 d10 k3, PS) stands 50%; under ATGCTACTTGAACAGT (sugars k3 d10 k3, PS), 47%.
Regarding ATGGATCTAGAACACT (sugars k3 d10 k3, PS), the target mRNA inhibition was found to be 43%.
Still for that read-out and setting: for “ATGGCTACAGATTGGA (sugars kkdddddddddkekek, PS)” the value was 57%; for ATGGTAAACTGTATGC (sugars k3 d10 k3, PS), 78%; for ATGGTAAGGAGTAGTG (sugars k3 d10 k3, PS), 17%.
Still for that read-out and setting: under “ATGTAATAGCCAGTAC (sugars k3 d1 m1 d8 k3, PS)” stands 42%.
The same measure, in the same setting: for “ATGTAATAGCCAGTAC (sugars k3 d9 k3 e1, PS)” the value was 63%; for “ATGTAATAGCCAGTAC (sugars kkdddddddddkekek, PS)”, 47%; for ATGTAATAGGCAGTAA (sugars k3 d10 k3, PS), 33%.
For “ATGTATCTTATAAGAC (sugars kkdddddddddkekek, PS)”, the target mRNA inhibition stood at 18%.
In turn, ATGTATGAGGTCTCCG (sugars k3 d10 k3, PS) yielded a target mRNA inhibition of 63%.
Turning to ATGTCAGACCTCTGTG (sugars k3 d10 k3, PS), the target mRNA inhibition was 19%.
The same measure, in the same setting: under ATGTCTTGGTAATCTC (sugars k3 d10 k3, PS) stands 23%; under “ATGTGAAGAGCTGGTA (sugars k3 d1 m1 d8 k3, PS)”, 26%.
ATGTGAAGAGCTGGTA (sugars k3 d10 k3, PS) returned a target mRNA inhibition of 42%.
Still for that read-out and setting: for “ATGTGAAGAGCTGGTA (sugars kkkddkddddddkkke, PS)” the value was 56%; for ATGTGATTGAGTTCTC (sugars k3 d10 k3, PS), 36%; for ATGTTTTGATCCAGGG (sugars k3 d10 k3, PS), 46%.
For the sequence ATTAACATTCGGCTAG (sugars k3 d10 k3, PS), the target mRNA inhibition is 17%.
On the same count and under the same terms, for ATTAAGCATTGTTAGC (sugars k3 d10 k3, PS) the value was 0%; for ATTAAGTACTGTGAGA (sugars k3 d10 k3, PS), 1%; for ATTAATCATGGGACAG (sugars k3 d10 k3, PS), 20%.
Still for that read-out and setting: under ATTAATGCCACCCTAC (sugars k3 d10 k3, PS) stands 6%; under ATTACAGCCTTAGAGT (sugars k3 d10 k3, PS), 56%.
On the same count and under the same terms, under ATTAGTCTTGATGTAG (sugars k3 d10 k3, PS) stands 67%.
As for ATTATTTCTTGCGAGA (sugars k3 d10 k3, PS), the target mRNA inhibition came to 60%.
ATTCTATAGCTAAGTA (sugars k3 d10 k3, PS): the target mRNA inhibition is 23%.
The same measure, in the same setting: for ATTGAATAGCCATGTA (sugars k3 d10 k3, PS) the value was 39%; for ATTGAATTCACTATCT (sugars k3 d10 k3, PS), 31%.
On the same count and under the same terms, under ATTGATACACCAATGC (sugars k3 d10 k3, PS) stands 66%; under ATTGATTCGAAACTAT (sugars k3 d10 k3, PS), 22%.
Take ATTGTAATCTTGAGGC (sugars k3 d10 k3, PS): the target mRNA inhibition was 39%.
On to ATTGTATGAGGTCTCT (sugars k3 d10 k3, PS), for which the target mRNA inhibition came to 49%.
In turn, ATTTAAAATAGAGTCG (sugars k3 d10 k3, PS) gave a target mRNA inhibition of 24%.
On to ATTTTTGGTGAACCCA (sugars k3 d10 k3, PS), for which the target mRNA inhibition worked out at 8%.
In turn, CAAAACAAGATTAGTC (sugars k3 d10 k3, PS) displayed a target mRNA inhibition of 18%.
The same measure, in the same setting: under CAAAACCTTTGTTGCC (sugars k3 d10 k3, PS) stands 14%; under CAAACATGGATGTTAG (sugars k3 d10 k3, PS), 49%.
Same read-out and setting: for CAAACCTTGAATGAGT (sugars k3 d10 k3, PS) the value was 53%; for CAAAGTTAATAGGACT (sugars k3 d10 k3, PS), 50%; for CAAAGTTTGGGCAGAG (sugars k3 d10 k3, PS), 44%.
On the same count and under the same terms, under CAAATGAGGCGGCACT (sugars k3 d10 k3, PS) stands 32%.
As to CAAATTCATAAGTAGT (sugars k3 d10 k3, PS), the target mRNA inhibition worked out at 76%.
Still for that read-out and setting: under CAACACTAATCTCAGT (sugars k3 d10 k3, PS) stands 4%; under CAACAGTTTAGATTGC (sugars k3 d10 k3, PS), 66%; under CAACTATGTAATAGGC (sugars k3 d10 k3, PS), 79%.
Still for that read-out and setting: under CAAGACATTCTAGCCT (sugars k3 d10 k3, PS) stands 58%; under CAAGACTTAAACACCA (sugars k3 d10 k3, PS), 55%.
In turn, “CAAGAGGATAGTCCAT (sugars k3 d1 m1 d8 k3, PS)” returned a target mRNA inhibition of 60%.
As to CAAGTAAGGTAAAGTC (sugars k3 d10 k3, PS), the target mRNA inhibition stood at 33%.
Still for that read-out and setting: for CAATAATAATGGGCAG (sugars k3 d10 k3, PS) the value was 43%; for CAATACAGGCCATAAT (sugars k3 d10 k3, PS), 0%.
The sequence CAATTCACATATGTGA (sugars k3 d10 k3, PS) had a target mRNA inhibition of 11%.
The sequence CACATACGCATGCGCA (sugars k3 d10 k3, PS) yielded a target mRNA inhibition of 59%.
Sequence CACCAATGCAGTTTGT (sugars k3 d10 k3, PS) returned a target mRNA inhibition of 42%.
Take CACCATGAAGGACTCC (sugars k3 d10 k3, PS): the target mRNA inhibition amounted to 48%.
For CACCATGACAGCTTCA (sugars k3 d10 k3, PS), the target mRNA inhibition turned out to be 65%.
Still for that read-out and setting: under “CACCGTTTTGGGCTAA (sugars kkdddddddddkekek, PS)” stands 42%.
Consider CACCTTTCATAATGTA (sugars k3 d10 k3, PS), for which the target mRNA inhibition came out at 59%.
The same measure, in the same setting: for CAGAACCAATATGCTC (sugars k3 d10 k3, PS) the value was 56%; for CAGAATATATACTAGG (sugars k3 d10 k3, PS), 55%; for “CAGAGACATGAGGTTT (sugars k3 d1 m1 d8 k3, PS)”, 61%.
Still for that read-out and setting: for CAGCTATAGGTAGCTA (sugars k3 d10 k3, PS) the value was 0%.
For the sequence CAGGAAGACAGGTAAT (sugars k3 d10 k3, PS), the target mRNA inhibition was 60%.

The same data set, now with this note: ASO, HepaRG, 1.25 µM.
In the case of “ATCCTATATACATCCA (sugars k3 d9 k3 e1, PS)”, the target mRNA inhibition was determined as 55%.
The same measure, in the same setting: under ATGGTAAACTGTATGC (sugars k3 d10 k3, PS) stands 75%; under CAACTATGTAATAGGC (sugars k3 d10 k3, PS), 73%.

The data set is the same for the next values; noted with them: ASO, HepaRG, 5 µM.
For the sequence “ATCCTATATACATCCA (sugars k3 d9 k3 e1, PS)”, the target mRNA inhibition turned out to be 76%.
The same measure, in the same setting: for ATGGTAAACTGTATGC (sugars k3 d10 k3, PS) the value was 89%; for CAACTATGTAATAGGC (sugars k3 d10 k3, PS), 92%.
